Here are results for two molecules from patent US20100209846A1, “NEGATIVE-WORKING IMAGEABLE ELEMENTS” (priority 2009, published 2010).

The data set in a line: Solubility of contrast dye in water. The data set is classed as physicochemical.

On to `CCCCCCC(CCCCCC)c1ccc(/C=C2/C(=C(C#N)C#N)c3ccccc3S2(=O)=O)c(C)c1`, for which the “Solubility of contrast dye in 1 liter water” value was 0.25 g.
Then `CN(C)c1ccc(C(=C2C=CC(=[N+](C)C)C=C2)c2ccc(N(C)C)cc2)cc1` [Crystal Violet], with 4 g.
